Residue numbers refer to the chain shown, from its start. Like-named read-outs stand apart in the source and are kept apart here.
Experiments:
[1] = molecular target: T1, wild-type TAS2R16 (Homo sapiens, UniProt Q9NYV7); assay: Ca2+ flux assay, HEK-293T cells expressing wild-type TAS2R16 and Gα16gust44; format: cell-based
T1 construct: FLAG (N); expressed in transfected cells; host or cells: HEK-293T
T1 sequence (Q9NYV7 1-291): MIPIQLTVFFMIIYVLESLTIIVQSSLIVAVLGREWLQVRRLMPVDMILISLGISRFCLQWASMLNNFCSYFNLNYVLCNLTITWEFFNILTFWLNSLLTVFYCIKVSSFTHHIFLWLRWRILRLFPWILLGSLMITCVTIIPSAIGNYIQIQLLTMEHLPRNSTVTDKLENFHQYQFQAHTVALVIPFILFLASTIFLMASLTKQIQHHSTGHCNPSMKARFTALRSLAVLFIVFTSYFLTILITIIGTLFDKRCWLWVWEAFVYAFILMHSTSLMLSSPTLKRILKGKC
Method: (§1) The TAS2R16 mutation library was tested for function using a Ca^2+ flux assay as described previously. Later screens of individual TAS2R16 mutant clones used 4-nitrophenyl-β-D-glucopyranoside. Briefly, HEK-293T cells, in poly-lysine coated, black 384-well plates with clear bottoms (Costar), were transfected with the TAS2R16 mutation library, and a plasmid expressing a Gα16 chimera containing the last 44 amino acids of rat gustducin (Gα16gust44). Cells were incubated for 22 hours at 37 °C then washed twice with a calcium indicator dye in HBSS containing 20 mM HEPES (Calcium 4 Assay kit, Molecular Devices), incubated with HBSS for 1.5 hr, then moved to a Flexstation II-384 (Molecular Devices) set at 32 °C. […] Concentrations for mutation library screening were chosen to be approximately 2 to 3 times higher than the EC50 values for the ligands to maximize the sensitivity of detecting decreases in signaling due to the mutation in each clone.
(§2) For Ca^2+ flux assays, the value of fluorescence at 30 seconds after ligand addition (the time of peak signal for wild-type TAS2R16) was used as the maximum value. […] Raw data obtained from surface expression and flux experiments were normalized to the values for wild-type TAS2R16 on each plate. Data sets were analyzed and represented as percentage over baseline signal. Mean and standard deviation values were calculated for each clone from replicate assay data.
(§3) Ligand dose-response data was analyzed with Graphpad Prism 5 software. Data was baseline subtracted and then fit using a sigmoidal dose-response (variable slope) equation.

[2] = test system: TAS2R16; conditions: read-out: EC50, reported value; cited from earlier work
[3] = molecular target: T2, M271R TAS2R16 (Homo sapiens, UniProt Q9NYV7, M271R); assay: Ca2+ flux assay, mutation library clone M271R; format: cell-based; conditions: 3 mM salicin, mean (range, max-min), n=3
T2 construct: Each construct in the mutation library was tested for full-length TAS2R16 translation; V5; expressed in transfected cells; host or cells: HEK-293T
T2 sequence (Q9NYV7 whole entry M271R): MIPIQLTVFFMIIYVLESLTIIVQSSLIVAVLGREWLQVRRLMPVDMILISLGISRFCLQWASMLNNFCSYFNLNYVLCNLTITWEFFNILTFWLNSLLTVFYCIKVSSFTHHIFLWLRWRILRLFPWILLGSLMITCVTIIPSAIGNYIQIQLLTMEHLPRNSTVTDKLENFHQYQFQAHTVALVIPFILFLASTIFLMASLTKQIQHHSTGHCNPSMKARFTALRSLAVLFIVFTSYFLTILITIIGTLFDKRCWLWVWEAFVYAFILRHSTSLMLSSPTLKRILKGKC
Method: as §1
(§4) For Ca^2+ flux assays, the value of fluorescence at 30 seconds after ligand addition (the time of peak signal for wild-type TAS2R16) was used as the maximum value. […] Data sets were analyzed and represented as percentage over baseline signal. Mean and standard deviation values were calculated for each clone from replicate assay data.

[4] = molecular target: T3, M64R TAS2R16 (Homo sapiens, UniProt Q9NYV7, M64R); assay: Ca2+ flux assay, mutation library clone M64R; format: cell-based; conditions: 3 mM salicin, mean (range, max-min), n=3
T3 construct: Each construct in the mutation library was tested for full-length TAS2R16 translation; V5; expressed in transfected cells; host or cells: HEK-293T
T3 sequence (Q9NYV7 whole entry M64R): as the sequence (Q9NYV7 whole entry M271R) above, with M64R, R271M counted along it
Method: as §1, §4

[5] = molecular target: T4, L191R TAS2R16 (Homo sapiens, UniProt Q9NYV7, L191R); assay: Ca2+ flux assay, mutation library clone L191R; format: cell-based; conditions: 3 mM salicin, mean (range, max-min), n=3
T4 construct: Each construct in the mutation library was tested for full-length TAS2R16 translation; V5; expressed in transfected cells; host or cells: HEK-293T
T4 sequence (Q9NYV7 whole entry L191R): as the sequence (Q9NYV7 whole entry M271R) above, with L191R, R271M counted along it
Method: as §1, §4

[6] = molecular target: T5, C58R TAS2R16 (Homo sapiens, UniProt Q9NYV7, C58R); assay: Ca2+ flux assay, mutation library clone C58R; format: cell-based; conditions: 3 mM salicin, mean (range, max-min), n=3
T5 construct: V5; expressed in transfected cells; host or cells: HEK-293T
T5 sequence (Q9NYV7 whole entry C58R): as the sequence (Q9NYV7 whole entry M271R) above, with C58R, R271M counted along it
Method: as §1, §4

[7] = molecular target: T6, S97R TAS2R16 (Homo sapiens, UniProt Q9NYV7, S97R); assay: Ca2+ flux assay, mutation library clone S97R; format: cell-based; conditions: 3 mM salicin, mean (range, max-min), n=3
T6 construct: Each construct in the mutation library was tested for full-length TAS2R16 translation; V5; expressed in transfected cells; host or cells: HEK-293T
T6 sequence (Q9NYV7 whole entry S97R): as the sequence (Q9NYV7 whole entry M271R) above, with S97R, R271M counted along it
Method: as §1, §4

[8] = molecular target: T7, L276R TAS2R16 (Homo sapiens, UniProt Q9NYV7, L276R); assay: Ca2+ flux assay, mutation library clone L276R; format: cell-based; conditions: 3 mM salicin, mean (range, max-min), n=3
T7 construct: V5; expressed in transfected cells; host or cells: HEK-293T
T7 sequence (Q9NYV7 whole entry L276R): as the sequence (Q9NYV7 whole entry M271R) above, with R271M, L276R counted along it
Method: as §1, §4

[9] = molecular target: T8, Q60R TAS2R16 (Homo sapiens, UniProt Q9NYV7, Q60R); assay: Ca2+ flux assay, mutation library clone Q60R; format: cell-based; conditions: 3 mM salicin, mean (range, max-min), n=3
T8 construct: V5; expressed in transfected cells; host or cells: HEK-293T
T8 sequence (Q9NYV7 whole entry Q60R): as the sequence (Q9NYV7 whole entry M271R) above, with Q60R, R271M counted along it
Method: as §1, §4

[10] = molecular target: T9, W61R TAS2R16 (Homo sapiens, UniProt Q9NYV7, W61R); assay: Ca2+ flux assay, mutation library clone W61R; format: cell-based; conditions: 3 mM salicin, mean (range, max-min), n=3
T9 construct: V5; expressed in transfected cells; host or cells: HEK-293T
T9 sequence (Q9NYV7 whole entry W61R): as the sequence (Q9NYV7 whole entry M271R) above, with W61R, R271M counted along it
Method: as §1, §4

[11] = molecular target: T10, W261A TAS2R16 (Homo sapiens, UniProt Q9NYV7, W261A); assay: Ca2+ flux assay, W261A TAS2R16 variant; format: cell-based
T10 construct: FLAG (N); expressed in transfected cells; host or cells: HEK-293T
T10 sequence (Q9NYV7 1-291 W261A): T1 sequence (Q9NYV7 1-291) with W261A
Method: as §1, §2, §3

[12] = molecular target: T11, D46A TAS2R16 (Homo sapiens, UniProt Q9NYV7, D46A); assay: Ca2+ flux assay, mutation library clone D46A; format: cell-based; conditions: 3 mM salicin, mean (range, max-min), n=3
T11 construct: FLAG (N); expressed in transfected cells; host or cells: HEK-293T
T11 sequence (Q9NYV7 whole entry D46A): as the sequence (Q9NYV7 whole entry M271R) above, with D46A, R271M counted along it
Method: as §1, §4

[13] = molecular target: T12, L134R TAS2R16 (Homo sapiens, UniProt Q9NYV7, L134R); assay: Ca2+ flux assay, mutation library clone L134R; format: cell-based; conditions: 3 mM salicin, mean (range, max-min), n=3
T12 construct: Each construct in the mutation library was tested for full-length TAS2R16 translation; V5; expressed in transfected cells; host or cells: HEK-293T
T12 sequence (Q9NYV7 whole entry L134R): as the sequence (Q9NYV7 whole entry M271R) above, with L134R, R271M counted along it
Method: as §1, §4

[14] = molecular target: T13, C104R TAS2R16 (Homo sapiens, UniProt Q9NYV7, C104R); assay: Ca2+ flux assay, mutation library clone C104R; format: cell-based; conditions: 3 mM salicin, mean (range, max-min), n=3
T13 construct: Each construct in the mutation library was tested for full-length TAS2R16 translation; V5; expressed in transfected cells; host or cells: HEK-293T
T13 sequence (Q9NYV7 whole entry C104R): as the sequence (Q9NYV7 whole entry M271R) above, with C104R, R271M counted along it
Method: as §1, §4

[15] = molecular target: T14, S108T TAS2R16 (Homo sapiens, UniProt Q9NYV7, S108T); assay: Ca2+ flux assay, mutation library clone S108T; format: cell-based; conditions: library screening concentrations
T14 construct: FLAG (N); expressed in transfected cells; host or cells: HEK-293T
T14 sequence (Q9NYV7 1-291 S108T): T1 sequence (Q9NYV7 1-291) with S108T
Method: as §1, §2

[16] = molecular target: T15, L59P TAS2R16 (Homo sapiens, UniProt Q9NYV7, L59P); assay: Ca2+ flux assay, mutation library clone L59P; format: cell-based; conditions: 3 mM salicin, mean (range, max-min), n=3
T15 construct: Each construct in the mutation library was tested for full-length TAS2R16 translation; V5; expressed in transfected cells; host or cells: HEK-293T
T15 sequence (Q9NYV7 whole entry L59P): as the sequence (Q9NYV7 whole entry M271R) above, with L59P, R271M counted along it
Method: as §1, §4

[17] = molecular target: T16, Q24R TAS2R16 (Homo sapiens, UniProt Q9NYV7, Q24R); assay: Ca2+ flux assay, mutation library clone Q24R; format: cell-based; conditions: 3 mM salicin, mean (range, max-min), n=3
T16 construct: FLAG (N); expressed in transfected cells; host or cells: HEK-293T
T16 sequence (Q9NYV7 whole entry Q24R): as the sequence (Q9NYV7 whole entry M271R) above, with Q24R, R271M counted along it
Method: as §1, §4

[18] = molecular target: T17, Y14H TAS2R16 (Homo sapiens, UniProt Q9NYV7, Y14H); assay: Ca2+ flux assay, mutation library clone Y14H; format: cell-based; conditions: 3 mM salicin, mean (range, max-min), n=3
T17 construct: FLAG (N); expressed in transfected cells; host or cells: HEK-293T
T17 sequence (Q9NYV7 whole entry Y14H): as the sequence (Q9NYV7 whole entry M271R) above, with Y14H, R271M counted along it
Method: as §1, §4

EC50 ([1]; Fig. 5b dose-response, wild-type TAS2R16, read-out: EC50 (WT)): 1.1 mM
EC50 ([1]; Fig. 6 comparative dose-response, wild-type TAS2R16, read-out: EC50 (WT)): 1.7 mM
EC50 ([1]; Fig. 7 dose-response, wild-type TAS2R16, read-out: EC50 (WT)): 5.5 mM
EC50 ([1]; Fig. 2d dose-response, wild-type TAS2R16, HEK-293T, read-out: EC50): 1.2 mM
activation of wild-type TAS2R16 ([1]; wild-type TAS2R16, HEK-293T): robust receptor activation
Ca2+ flux in response to salicin [3]: 7 (6) % of wild-type
Ca2+ flux in response to salicin [4]: 14 (1) % of wild-type
Ca2+ flux in response to salicin [5]: 1 (3) % of wild-type
Ca2+ flux in response to salicin [6]: 5 (2) % of wild-type
Ca2+ flux in response to salicin [7]: 0 (5) % of wild-type
Ca2+ flux in response to salicin [8]: 17 (7) % of wild-type
Ca2+ flux in response to salicin [9]: 4 (7) % of wild-type
Ca2+ flux in response to salicin [10]: 15 (7) % of wild-type
EC50 ([11]; Fig. 5b dose-response, W261A TAS2R16): ~13.4 mM
activation of W261A variant ([11]; W261A TAS2R16, relative to wild-type): eliminated activation
Ca2+ flux in response to salicin [12]: 8 (9) % of wild-type
Ca2+ flux in response to salicin [13]: 1 (8) % of wild-type
Ca2+ flux in response to salicin [14]: 9 (1) % of wild-type
Ca2+ flux signaling value [15]: 99 % of wild-type
Ca2+ flux in response to salicin [16]: 2 (3) % of wild-type
Ca2+ flux in response to salicin [17]: 9 (9) % of wild-type
Ca2+ flux in response to salicin [18]: 9 (9) % of wild-type
Structure (SMILES): OCc1ccccc1O[C@@H]1O[C@H](CO)[C@@H](O)[C@H](O)[C@H]1O [salicin]
EC50 [2]: 3 mM
